The record followed here is patent US12473294B2, “Selective modulators of mutant LRRK2 proteolysis and associated methods of use” (Arvinas Operations, Inc., priority 2020, dated 2025).

For experiment [1], the target named is T1, G2019S LRRK2 (Homo sapiens, UniProt Q5S007, G2019S).
T1 construct: expressed in transfected cells; host or cells: HEK293 (ATCC CRL-1573)
Nature of the experiment: LRRK2 degradation HiBit assay, G2019S LRRK2 tagged with a HiBit tag expressed in HEK293 cells. It is filed as cell-based. The following applies: 24 hours compound incubation; for Dmax: HEK293, HEK293 cells; for DC50: HEK293 cells. As for the experimental part:
The assay measures the degradation of wildtype and G2019S LRRK2 tagged with a HiBit tag on the C-terminus of the protein that was expressed from a mammalian expression vector, driven by the ubiquitin promoter in HEK293 cells. Each compound dose-response was repeated on three separate days, on three separate plates each day.
(§1) Plasmid Preparation. Transfection mixes were assembled as follows and incubated for 30 minutes at room temperature. In a 15 mL tube, 5.25 mL Opti-MEM (no additions) was mixed with 17 μL Firefly Luciferase plasmid at 1 μg/μL and 158 μL WT plasmid DNA at 1 μg/μL (175 μg total DNA) were mixed by flicking. In a new 15 mL tube, 5.25 mL OptiMEM was mixed with 17 μL Firefly Luciferase plasmid at 1 μg/μL and 158 μL G2019S plasmid DNA at 1 μg/μL (175 μg total DNA) were mixed by flicking. X-tremeGene HP was mixed thoroughly using a vortex. Next, 175 μL was added to each tube and flicked to mix. Both tubes were left to incubate for 30 minutes at room temperature.
While the transfection mixes were incubating, HEK293 cells acquired from ATCC (ATCC CRL-1573) were harvested with trypsin. Once cells are detached, the cells were resuspended in 12 mL OptiMEM+5% FBS and transferred to a 50 mL tube. The cells were mixed well and counted. Using OptiMEM+5% FBS, the cells were diluted in two 250 mL conical tubes at 0.71×10^6 cells/mL in 70 mL. One tube was labeled “WT” and the other “G2019S”. The WT and G2019S transfection mixes were added dropwise to the corresponding 250 mL tubes. The tubes were mixed first by pipetting then by swirling. The tubes were incubated at room temperature for at least 5 minutes.
(§2) Each tube was swirled before dispensing and after every three plates. Seventy microliters of cells were dispensed with WT or G2019S DNA to seven plates each. Three plates of each were tested with compound plate one (preparation described below) and three plates of each were tested with compound plate two (preparation described below). The first plate from each set served as a “prime” plate and was not used to test compounds. Each plate was incubated in the hood for 10 minutes before placing in the 37° C. incubator for 24 hours.
(§3) Preparation of Compound and Assay Plates. Two compound plates were made using 96 well polypropylene plates. Compounds were made up at 10 mM and were diluted to 1 mM in 30 μL. Each dose response curve included a well of DMSO, as a negative control and for normalization, and a well of 0.5 μM of Exemplary Compound 4 as a positive control. In addition to seven test compounds, each plate also included a dose response of Exemplary Compound 4. The compound plates were spun down along at 1200 rpm for 2 minutes.
(§4) The two compound plates were then mixed and 2 μL was diluted in intermediate plates having 248 μL of Opti-Mem in each well. Next, 10 μL diluted compounds from the intermediate plates were added to each test plate (three WT and three G2019S plates per compound plate for a total of 12 assay plates). The plates were incubated for 24 hours at 37° C.
(§5) All assay plates and all Nano-Glo Dual-Luciferase Reporter Assay System components (except for the DLR substrate) were equilibrated to room temperature. Next, the luciferase buffer was mixed with the lyophilized amber bottle until fully dissolved, and 75 μL of the luciferase mixture was added to each well of each assay plate. The assay plates were incubated for 10 minutes at room temperature with shaking for at least 5 minutes, and then read on a plate reader.
(§6) Developing Plates and Analyzing Data. One milliliter of DLR substrate and 1 mL LgBiT Protein were added to the Stop and Glo buffer, and 75 μL of the mixture was added to each well of each plate. Optically clear seals were added to each plate and each plate was incubated for 20 minutes with shaking for at least 10 minutes, and then read on a plate reader. […]
In general terms: With HiBiT, luminescence reflects the tagged protein that the partner subunit can reach.

Experiment [2] addresses T2, wildtype LRRK2 (Homo sapiens, UniProt Q5S007).
T2 construct: endogenous in cells; host or cells: HEK293 with HiBit knocked in at the 3' end of the endogenous LRRK2 gene, stably expressing firefly luciferase
Nature of the experiment: LRRK2 degradation HiBit assay, wildtype LRRK2 tagged with a HiBit tag in HEK293 cells. It is filed as cell-based. The following applies: 24 hours compound incubation; for Dmax: read-out: ** WT Dmax (%); for DC50: read-out: *WT DC50. As for the experimental part:
The assay measures the degradation of wildtype and G2019S LRRK2 tagged with a HiBit tag on the C-terminus of the protein that was expressed from a mammalian expression vector, driven by the ubiquitin promoter in HEK293 cells. Each compound dose-response was repeated on two separate days, on three separate plates each day.
as §1
While the transfection mixes were incubating, HEK293 cells (acquired from ATCC; ATCC CRL-1573) were harvested with trypsin. Once cells are detached, the cells were resuspended in 12 mL OptiMEM+5% FBS and transferred to a 50 mL tube. The cells were mixed well and counted. Using OptiMEM+5% FBS, the cells were diluted in two 250 mL conical tubes at 0.71×10^6 cells/mL in 70 mL. One tube was labeled “WT” and the other “G2019S”. The WT and G2019S transfection mixes were added dropwise to the corresponding 250 mL tubes. The tubes were mixed first by pipetting then by swirling. The tubes were incubated at room temperature for at least 5 minutes.
as §2, §3, §4, §5, §6

T1 sequence (Q5S007 whole entry G2019S): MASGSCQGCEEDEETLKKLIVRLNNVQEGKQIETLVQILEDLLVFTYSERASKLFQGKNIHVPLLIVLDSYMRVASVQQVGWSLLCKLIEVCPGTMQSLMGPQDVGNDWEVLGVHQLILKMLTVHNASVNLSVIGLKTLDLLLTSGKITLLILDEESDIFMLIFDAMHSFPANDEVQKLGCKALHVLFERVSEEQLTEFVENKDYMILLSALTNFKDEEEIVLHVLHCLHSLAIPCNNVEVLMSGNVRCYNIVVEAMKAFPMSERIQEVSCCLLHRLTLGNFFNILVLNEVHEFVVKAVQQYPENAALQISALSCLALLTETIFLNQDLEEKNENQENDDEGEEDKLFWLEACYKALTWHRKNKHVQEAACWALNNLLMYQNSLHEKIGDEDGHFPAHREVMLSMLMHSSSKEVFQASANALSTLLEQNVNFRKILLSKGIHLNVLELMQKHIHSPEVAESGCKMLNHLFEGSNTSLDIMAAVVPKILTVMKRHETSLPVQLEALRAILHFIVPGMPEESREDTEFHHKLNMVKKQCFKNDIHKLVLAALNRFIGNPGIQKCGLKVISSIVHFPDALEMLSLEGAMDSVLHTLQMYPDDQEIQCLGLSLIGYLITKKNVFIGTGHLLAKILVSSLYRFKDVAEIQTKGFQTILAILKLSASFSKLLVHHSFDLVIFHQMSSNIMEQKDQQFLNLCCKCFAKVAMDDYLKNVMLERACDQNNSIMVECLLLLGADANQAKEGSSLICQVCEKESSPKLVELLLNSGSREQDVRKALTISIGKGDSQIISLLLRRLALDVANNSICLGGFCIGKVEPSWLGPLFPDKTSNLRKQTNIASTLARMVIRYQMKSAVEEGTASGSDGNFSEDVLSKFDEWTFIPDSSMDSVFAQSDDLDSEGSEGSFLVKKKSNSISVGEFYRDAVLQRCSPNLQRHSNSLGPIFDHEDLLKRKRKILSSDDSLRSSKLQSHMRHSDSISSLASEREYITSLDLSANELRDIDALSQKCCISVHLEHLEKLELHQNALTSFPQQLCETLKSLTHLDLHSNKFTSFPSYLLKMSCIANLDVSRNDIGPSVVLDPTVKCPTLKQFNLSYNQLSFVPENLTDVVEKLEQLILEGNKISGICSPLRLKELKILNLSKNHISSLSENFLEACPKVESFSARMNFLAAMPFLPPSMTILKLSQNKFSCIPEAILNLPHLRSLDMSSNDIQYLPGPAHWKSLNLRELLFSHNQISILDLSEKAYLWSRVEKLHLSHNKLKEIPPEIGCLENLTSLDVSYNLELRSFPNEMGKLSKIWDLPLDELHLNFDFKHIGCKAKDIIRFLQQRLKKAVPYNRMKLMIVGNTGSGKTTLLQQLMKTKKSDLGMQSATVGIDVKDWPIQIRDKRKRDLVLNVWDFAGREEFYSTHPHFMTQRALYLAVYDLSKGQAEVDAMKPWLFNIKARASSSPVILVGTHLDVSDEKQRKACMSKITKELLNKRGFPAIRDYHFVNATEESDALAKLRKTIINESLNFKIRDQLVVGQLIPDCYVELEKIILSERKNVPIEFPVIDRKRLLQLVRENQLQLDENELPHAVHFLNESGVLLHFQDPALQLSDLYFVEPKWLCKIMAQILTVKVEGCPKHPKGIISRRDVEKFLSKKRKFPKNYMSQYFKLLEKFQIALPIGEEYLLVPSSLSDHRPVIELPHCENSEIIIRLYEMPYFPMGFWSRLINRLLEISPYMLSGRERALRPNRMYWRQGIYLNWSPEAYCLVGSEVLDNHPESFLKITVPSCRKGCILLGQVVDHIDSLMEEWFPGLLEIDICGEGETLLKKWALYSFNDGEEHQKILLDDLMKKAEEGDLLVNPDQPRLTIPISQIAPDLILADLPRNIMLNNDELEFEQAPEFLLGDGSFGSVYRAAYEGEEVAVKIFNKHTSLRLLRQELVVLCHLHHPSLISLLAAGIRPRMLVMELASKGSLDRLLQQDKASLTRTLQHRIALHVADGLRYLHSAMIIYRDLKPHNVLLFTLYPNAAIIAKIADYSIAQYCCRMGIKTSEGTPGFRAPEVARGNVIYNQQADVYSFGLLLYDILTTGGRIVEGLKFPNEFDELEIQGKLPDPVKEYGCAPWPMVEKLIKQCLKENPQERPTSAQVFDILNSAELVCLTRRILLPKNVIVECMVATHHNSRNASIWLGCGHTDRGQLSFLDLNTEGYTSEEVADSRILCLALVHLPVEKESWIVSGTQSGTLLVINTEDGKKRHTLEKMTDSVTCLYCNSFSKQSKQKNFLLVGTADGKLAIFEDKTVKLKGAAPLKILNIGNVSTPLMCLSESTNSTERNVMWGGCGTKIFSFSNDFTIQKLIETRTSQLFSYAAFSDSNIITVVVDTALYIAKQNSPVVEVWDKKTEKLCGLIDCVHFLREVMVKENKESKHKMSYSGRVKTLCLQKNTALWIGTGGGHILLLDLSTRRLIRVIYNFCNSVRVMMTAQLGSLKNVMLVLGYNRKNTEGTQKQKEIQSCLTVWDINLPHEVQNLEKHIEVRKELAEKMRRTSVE
T2 sequence (Q5S007 whole entry): as the sequence (Q5S007 whole entry G2019S) above, with S2019G counted along it

A word on the Dmax: it is the greatest extent of degradation seen. Broadly, the DC50 is the midpoint of the concentration-degradation curve. For the compound `CC1=C(C(=O)Nc2ccc3[nH]nc(-c4ccnc(N5CCN(CC6CCN(CC7CCN(c8ccc9c(c8)C(=O)N(C8CCC(=O)NC8=O)C9=O)CC7)CC6)[C@@H](C)C5)c4)c3c2)Cn2nnnc2N1C` (stereo partly drawn) [compound 10, N-(3-(2-((S)-4-((1-((1-(2-(2,6-dioxopiperidin-3-yl)-1,3-dioxoisoindolin-5-yl)piperidin-4-yl)methyl)piperidin-4-yl)methyl)-3-methylpiperazin-1-yl)pyridin-4-yl)-1H-indazol-5-yl)-4,5-dimethyl-4,7-dihydrotetrazolo[1,5-a]pyrimidine-6-carboxamide], the Dmax in experiment [1] and in experiment [2] was 50 to 70% each time. Further, the DC50 in experiment [1] is less than 10 nM; in experiment [2], 10 to 50 nM.
In experiment [1], `CC1=C(C(=O)Nc2ccc3[nH]nc(-c4ccnc(N5CCN(CCN6CCC(CN7CCN(c8ccc9c(c8)C(=O)N(C8CCC(=O)NC8=O)C9=O)CC7)CC6)[C@@H](C)C5)c4)c3c2)C(C)(C)n2nnnc2N1C` (stereo partly drawn) [compound 36, N-(3-{2-[(3S)-4-{2-[4-({4-[2-(2,6-dioxopiperidin-3-yl)-1,3-dioxo-2,3-dihydro-1H-isoindol-5-yl]piperazin-1-yl}methyl)piperidin-1-yl]ethyl}-3-methylpiperazin-1-yl]pyridin-4-yl}-1H-indazol-5-yl)-4,5,7,7-tetramethyl-4H,7H-[1,2,3,4]tetrazolo[1,5-a]pyrimidine-6-carboxamide] displayed a Dmax of less than 50% and a 50% degradation concentration (DC50) of no less than 100 nM. Also, the DC50 in experiment [2] is no less than 100 nM.
Consider `CC1=C(C(=O)Nc2ccc3[nH]nc(-c4ccnc(N5C[C@@H](C)N(CCOCCOCCN6CCN(c7ccc8c(c7)C(=O)N(C7CCC(=O)NC7=O)C8=O)CC6)[C@@H](C)C5)c4)c3c2)Cn2nnnc2N1C` (stereo partly drawn) [compound 4, N-(3-(2-((3R,5S)-4-(2-(2-(2-(4-(2-(2,6-dioxopiperidin-3-yl)-1,3-dioxoisoindolin-5-yl)piperazin-1-yl)ethoxy)ethoxy)ethyl)-3,5-dimethylpiperazin-1-yl)pyridin-4-yl)-1H-indazol-5-yl)-4,5-dimethyl-4,7-dihydrotetrazolo[1,5-a]pyrimidine-6-carboxamide], for which the DC50 in experiment [1] and in experiment [2] was no less than 100 nM in each case.
As for `CC1=C(C(=O)Nc2ccc3[nH]nc(-c4ccnc(N5CC6(CN(CC7CCN(c8ccc9c(c8)C(=O)N(C8CCC(=O)NC8=O)C9=O)CC7)C6)C5)c4)c3c2)[C@@H](C)n2nnnc2N1C` (stereo partly drawn) [compound 26, (7R)-N-(3-{2-[6-({1-[2-(2,6-dioxopiperidin-3-yl)-1,3-dioxo-2,3-dihydro-1H-isoindol-5-yl]piperidin-4-yl}methyl)-2,6-diazaspiro[3.3]heptan-2-yl]pyridin-4-yl}-1H-indazol-5-yl)-4,5,7-trimethyl-4H,7H-[1,2,3,4]tetrazolo[1,5-a]pyrimidine-6-carboxamide], in experiment [1], the Dmax was no less than 70% and the DC50 was no less than 100 nM. The DC50 in experiment [2] is no less than 100 nM.
With `CC1=C(C(=O)Nc2ccc3[nH]nc(-c4ccnc(N5CCN(CC6CCN(C7CCN(c8ccc9c(c8)C(=O)N(C8CCC(=O)NC8=O)C9=O)CC7)CC6)CC5)c4)c3c2)[C@@H](C)n2nnnc2N1C` (stereo partly drawn) [compound 18, (7R)-N-(3-(2-(4-((1-(1-(2-(2,6-dioxopiperidin-3-yl)-1,3-dioxoisoindolin-5-yl)piperidin-4-yl)piperidin-4-yl)methyl)piperazin-1-yl)pyridin-4-yl)-1H-indazol-5-yl)-4,5,7-trimethyl-4,7-dihydrotetrazolo[1,5-a]pyrimidine-6-carboxamide], the Dmax was 50 to 70% in experiment [1] and less than 50% in experiment [2]. Besides, the DC50 was 50 to 100 nM in experiment [1] and no less than 100 nM in experiment [2].
Consider `CC1=C(C(=O)Nc2ccc3[nH]nc(-c4ccnc(N5C[C@@H](C)N(CCN6CCN(c7ccc8c(c7)C(=O)N(C7CCC(=O)NC7=O)C8=O)CC6)[C@@H](C)C5)c4)c3c2)Cn2nnnc2N1C` (stereo partly drawn) [compound 5, N-(3-(2-((3R,5S)-4-(2-(4-(2-(2,6-dioxopiperidin-3-yl)-1,3-dioxoisoindolin-5-yl)piperazin-1-yl)ethyl)-3,5-dimethylpiperazin-1-yl)pyridin-4-yl)-1H-indazol-5-yl)-4,5-dimethyl-4,7-dihydrotetrazolo[1,5-a]pyrimidine-6-carboxamide], for which, in experiment [1], the maximal degradation (Dmax) is less than 50% and the DC50 was no less than 100 nM. In addition, in experiment [2], the DC50 is no less than 100 nM.
Regarding `CC1=C(C(=O)Nc2ccc3[nH]nc(-c4ccnc(N5CCN(C6CN(CC7CCN(c8ccc9c(c8)C(=O)N(C8CCC(=O)NC8=O)C9=O)CC7)C6)CC5)c4)c3c2)[C@@H](C)n2nnnc2N1C` (stereo partly drawn) [compound 24, (7R)-N-[3-(2-{4-[1-({1-[2-(2,6-dioxopiperidin-3-yl)-1,3-dioxo-2,3-dihydro-1H-isoindol-5-yl]piperidin-4-yl}methyl)azetidin-3-yl]piperazin-1-yl}pyridin-4-yl)-1H-indazol-5-yl]-4,5,7-trimethyl-4H,7H-[1,2,3,4]tetrazolo[1,5-a]pyrimidine-6-carboxamide], in experiment [1], the Dmax was in the range of 50 to 70% and the DC50 lay in the range of 10 to 50 nM. In addition, in experiment [2], the Dmax was less than 50% and the DC50 lay in the range of 10 to 50 nM.
In experiment [1], `CC1=C(C(=O)Nc2ccc3[nH]nc(-c4ccnc(N5C[C@@H](C)N(CC6CCN(CC7CCN(c8ccc9c(c8)C(=O)N(C8CCC(=O)NC8=O)C9=O)CC7)CC6)[C@@H](C)C5)c4)c3c2)C(C)n2nnnc2N1C` (stereo partly drawn) [compound 2, N-(3-(2-((3S,5R)-4-((1-((1-(2-(2,6-dioxopiperidin-3-yl)-1,3-dioxoisoindolin-5-yl)piperidin-4-yl)methyl)piperidin-4-yl)methyl)-3,5-dimethylpiperazin-1-yl)pyridin-4-yl)-1H-indazol-5-yl)-4,5,7-trimethyl-4,7-dihydrotetrazolo[1,5-a]pyrimidine-6-carboxamide] registered a Dmax of 50 to 70% and a DC50 of less than 10 nM. For the same compound, in experiment [2], the Dmax lay in the range of 50 to 70% and the DC50 lay within 10 to 50 nM.
The compound `CC1=C(C(=O)Nc2ccc3[nH]nc(-c4ccnc(N5CCN(CCN6CCN(CC7CCN(c8ccc9c(c8)C(=O)N(C8CCC(=O)NC8=O)C9=O)CC7)CC6)CC5)c4)c3c2)C(C)(C)n2nnnc2N1C` (stereo not drawn) [compound 35, N-{3-[2-(4-{2-[4-({1-[2-(2,6-dioxopiperidin-3-yl)-1,3-dioxo-2,3-dihydro-1H-isoindol-5-yl]piperidin-4-yl}methyl)piperazin-1-yl]ethyl}piperazin-1-yl)pyridin-4-yl]-1H-indazol-5-yl}-4,5,7,7-tetramethyl-4H,7H-[1,2,3,4]tetrazolo[1,5-a]pyrimidine-6-carboxamide] registered a Dmax in experiment [1] of less than 50%. The DC50 in experiment [1] was 10 to 50 nM; in experiment [2] it was no less than 100 nM.
